Test results published in US12187705B2, “Heteroaryl-triazole and heteroaryl-tetrazole compounds as pesticides” (Bayer Aktiengesellschaft, priority 2018, dated 2025).

Legend:
Format in all cases: in vivo
Diabrotica balteata = Diabrotica balteata spray test; conditions: 160 μg/well, wheat seeds, after 7 days; for pest or weed control at 160 µg/disc, 160 µg/well: Diabrotica balteata, 168 h, read-out: efficacy (seedlings grown)
Method in brief: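 Wheat seeds germinated 1 day on agar were sprayed with compound diluted in water with 1000 ppm emulsifier, then infested with 10-20 Diabrotica balteata larvae. Efficacy in % scored after 7 days: 100% = seedlings grown as untreated, uninfected control; 0% = no seedlings grown.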

Boophilus microplus = Boophilus microplus injection test; conditions: 20 μg/animal, egg deposition after 7 days; for pest or weed control at 0.02 mg: Rhipicephalus microplus, 168 h, read-out: efficacy (infertile eggs)
Method in brief: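 Engorged adult female ticks, five per dose, received 1 μl of compound in DMSO injected into the abdomen and were kept in a climate chamber. Fertile egg deposition was checked after 7 days, with eggs of unclear fertility held until hatching at about 42 days. Efficacy 100% = all eggs infertile, 0% = all fertile.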

[1] = system: cattle ticks (Boophilus microplus) strane Parhurst, SP-resistant; test: Boophilus microplus dip test; conditions: 100 ppm, egg deposition after 7 days
Protocol: Boophilus microplus—Dip Test
Test animal: cattle ticks (Boophilus microplus) strane Parhurst, SP-resistant
Solvent: dimethyl sulfoxide
To produce a suitable preparation of active compound, 10 mg of active compound are dissolved in 0.5 ml solvent, and the concentrate is diluted with water to the desired concentration.
This compound solution is pipetted into tubes. 8-10 engorged, adult, female cattle ticks (Boophilus microplus) are placed in perforated tubes. These tubes are immersed in the aqueous compound solution until the ticks are completely moistened. After the liquid has drained off, the ticks are transferred to a filter paper in a plastic tray and stored in a climate chamber.
After 7 days egg deposition of fertile eggs is monitored. Eggs where fertility is not visible are stored in a climate chamber till hatching after about 42 days. An efficacy of 100% means all eggs are infertile; 0% means all eggs are fertile.

Ctenocephalides felis [2] = test: Ctenocephalides felis in-vitro contact test adult cat flea; conditions: 5 μg/cm^2 (=500 g/ha), after 48 hours; for pest or weed control at 5 µg/cm2, 5 µg/cm2: Ctenocephalides felis, read-out: efficacy (fleas dead or moribund)
Method in brief: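 Compound in acetone was coated on glass tube walls, giving 5 μg/cm^2 at 900 ppm. 5-10 adult cat fleas were held at room temperature for 48 h, then heat-challenged at 45-50° C. Fleas immotile or uncoordinated were scored dead/moribund, expressed as % efficacy.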

[3] = system: Anopheles funestus strain FUMOZ-R; test: Anopheles funestus test (ANPHFU surface treatment & contact assay); conditions: 24 hours after contact, read-out: efficacy (mortality); for mortality at 4 mg/m2: surface concentration 4 mg/m^2, 30 minutes exposure; for mortality at 20 mg/m2: surface concentration 20 mg/m^2, 30 minutes exposure
Method in brief: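 Compound dissolved in acetone (2 mg/ml) with 2000 ppm rapeseed oil methyl ester, dried onto glazed tile; adult Anopheles funestus FUMOZ-R exposed for 30 minutes. Percent mortality scored 24 hours after contact.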

[4] = system: Aedes aegypti strain MONHEIM; test: Aedes aegypti test (AEDSAE surface treatment & contact assay); conditions: 24 hours after contact, read-out: efficacy (mortality); for mortality at 4 mg/m2: surface concentration 4 mg/m^2, 30 minutes exposure; for mortality at 20 mg/m2: surface concentration 20 mg/m^2, 30 minutes exposure
Method in brief: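 Compound dissolved in acetone (2 mg/ml) with 2000 ppm rapeseed oil methyl ester and dried onto a glazed tile. Adult mosquitoes held on the treated surface for 30 minutes exposure. Percent mortality scored 24 hours after contact.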

Nezara viridula = Nezara viridula spray test; conditions: in Hordeum vulgare, 96 h
Method in brief: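 Barley plants infested with stink bug larvae were sprayed with compound diluted in water containing 1000 ppm emulsifier. Mortality (%) was scored after 4 days, 100% meaning all bugs killed.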

Myzus persicae [5] = test: Myzus persicae oral test; conditions: 120 h
Method in brief: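 Feeding test: compound diluted in water was combined with IPL41 insect medium (33%+15% sugar) under a parafilm seal. A mixed population of green peach aphids fed through the membrane. Mortality (%) was scored after 5 days.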

Myzus persicae [6] = test: Myzus persicae spray test; conditions: in Brassica rapa, foliar, 120 h
Method in brief: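 Chinese cabbage leaf disks infested with all aphid instars were sprayed with compound diluted in water containing emulsifier (1000 ppm). Mortality (%) was scored after 5 days, 100% meaning all aphids killed.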

[7] = system: Culex quinquefasciatus strain P00; test: Culex quinquefasciatus test (CULXFA surface treatment & contact assay); conditions: 24 hours after contact, read-out: efficacy (mortality); for mortality at 4 mg/m2: surface concentration 4 mg/m^2, 30 minutes exposure; for mortality at 20 mg/m2: surface concentration 20 mg/m^2, 30 minutes exposure
Method in brief: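 Compound dissolved in acetone (2 mg/ml) with 2000 ppm rapeseed oil methyl ester, applied to glazed tile and dried. Adult strain P00 mosquitoes exposed to the surface for 30 minutes. Percent mortality scored 24 hours after contact.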

Spodoptera frugiperda = Spodoptera frugiperda spray test; conditions: in Zea mays, 168 h
Method in brief: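 Caterpillars are placed on sprayed, dried maize leaf sections. Sprays contain compound diluted in water with emulsifier at 1000 ppm; mortality in % is determined 7 days later.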

Rhipicephalus sanguineus = Rhipicephalus sanguineus in-vitro contact test with adult brown dog ticks; conditions: Rhipicephalus sanguineus; 5 μg/cm^2 (=500 g/ha), after 48 hours; read-out: efficacy (ticks dead or moribund)
Protocol: Rhipicephalus sanguineus—In-Vitro Contact Test with Adult Brown Dog Ticks
9 mg compound is solved in 1 ml acetone and diluted with acetone to the desired concentration. 250 μl of the test solution is filled in 25 ml glass test tubes and homogeneously distributed on the inner walls by rotation and tilting on a shaking device (2 h at 30 rpm). With a compound concentration of 900 ppm, an inner surface of 44.7 cm^2 and a homogeneous distribution, a dose of 5 μg/cm^2 is achieved.
After the solvent has evaporated, each test tube is filled with 5-10 adult brown dog ticks (Rhipicephalus sanguineus), closed with a perforated lid and incubated in a lying position at room temperature and relative humidity. After 48 hours efficacy is determined. The ticks are patted on the ground of the tubes and are incubated on a heating plate at 45-50° C. for at most 5 minutes. Immotile or uncoordinated moving ticks, which are not able to escape the heat by climbing upwards, are marked as dead or moribund.
An efficacy of 100% means all ticks are dead or moribund; 0% means no ticks are dead or moribund.

[8] = system: Musca domestica strain WHO-N; test: Musca domestica test (MUSCDO surface treatment & contact assay); conditions: surface concentration 20 mg/m^2, 30 minutes exposure, 24 hours after contact, read-out: efficacy (mortality)
Protocol: Musca domestica Test (MUSCDO Surface Treatment & Contact Assay)
Solvent: Aceton+2000 ppm rapeseed oil methyl ester (RME)
In order to produce a sufficient, active ingredient containing solution it is necessary to solve the test-compound in the solvent-mix (Acetone at 2 mg/ml/RME 2000 ppm). This solution is pipetted onto a glazed tile and after evaporation of the Acetone, adult flies of the species Musca domestica strain WHO-N are placed onto the dried surface. The exposure time is 30 minutes.
Mortality in percent (%) is determined 24 hours after contact to the treated surface. 100% mortality means that all test-insects are dead, whereas 0% means that not a single insect died.

Ctenocephalides felis [9] = test: Ctenocephalides felis oral test; conditions: Ctenocephalides felis, in Bos taurus, po, 48 h
Method in brief: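 About 20 adult unfed fleas fed through parafilm on cattle blood containing compound (DMSO concentrate diluted in blood); blood held at 37° C., fleas at room temperature. Mortality in % scored after 2 days (100% = all killed).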

Nilaparvata lugens = Nilaparvata lugens spray test; conditions: Nilaparvata lugens, in Oryza sativa, 96 h
Method in brief: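 Rice plants sprayed with compound diluted in water containing 1000 ppm emulsifier, then infested with brown planthopper. Mortality (%) scored after 4 days, 100% meaning all insects killed.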

Phaedon cochleariae = Phaedon cochleariae spray test; conditions: foliar, 168 h, Chinese cabbage leaf disks, after 7 days
Protocol: Phaedon cochleariae—Spray Test
To produce a suitable preparation of active compound, 1 part by weight of active compound is mixed with the stated amount of solvents and is diluted with water, containing an emulsifier concentration of 1000 ppm, to the desired concentration. Further test concentrations are prepared by dilution with emulsifier containing water.
Chinese cabbage (Brassica pekinensis) leaf disks are sprayed with a preparation of the active ingredient of the desired concentration. Once dry, the leaf disks are infested with mustard beetle larvae (Phaedon cochleariae).
After 7 days mortality in % is determined. 100% means all beetle larvae have been killed and 0% means none of the beetle larvae have been killed.

| SMILES | efficacy (infertile eggs) [1] [%] | mortality at 4 mg/m2 [4] [%] | mortality at 20 mg/m2 [4] [%] | mortality at 500 g/ha (Nezara viridula) [%] | mortality at 4 ppm (Myzus persicae [5]) [%] | mortality at 500 g/ha (Myzus persicae [6]) [%] | pest or weed control at 160 µg/disc, 160 µg/well (Diabrotica balteata) [%] | mortality at 4 mg/m2 [7] [%] | mortality at 20 mg/m2 [7] [%] | mortality at 500 g/ha (Spodoptera frugiperda) [%] | pest or weed control at 5 µg/cm2, 5 µg/cm2 (Rhipicephalus sanguineus) [%] | mortality at 100 ppm (Ctenocephalides felis [9]) [%] | pest or weed control at 5 µg/cm2, 5 µg/cm2 (Ctenocephalides felis [2]) [%] | mortality at 20 ppm (Myzus persicae [5]) [%] | pest or weed control at 0.02 mg (Boophilus microplus) [%] | mortality at 500 g/ha (Nilaparvata lugens) [%] | mortality at 500 g/ha (Phaedon cochleariae) [%] | further results |
| --- | --- | --- | --- | --- | --- | --- | --- | --- | --- | --- | --- | --- | --- | --- | --- | --- | --- | --- |
| CC(NC(=O)c1cc(Cl)cc(S(C)(=O)=O)c1)c1ncnn1-c1ccc(C#N)cn1 (stereo not shown) [Example I-035] | 100 |  |  |  |  |  |  |  |  |  |  |  |  |  |  |  |  | efficacy (seedlings grown) (Diabrotica balteata): 100%; efficacy (infertile eggs) (Boophilus microplus): 100%; efficacy (fleas dead or moribund) (Ctenocephalides felis [2]): 100% |
| CSc1cc(Cl)cc(C(=O)N[C@H](C)c2ncnn2-c2ccc(C#N)cn2)c1 [Example I-066] |  | 80 to 100 | 90 to 100 | 100 | 90 | 90 | 100 | 80 to 100 | 80 to 100 | 100 | 80 | 100 | 100 |  |  |  |  | mortality at 4 mg/m2 [3]: 85 to 100%; mortality at 20 mg/m2 [3]: 85 to 100%; mortality at 20 mg/m2 [8]: 80 to 100% |
| CC(c1ncnn1-c1ncccn1)N(CC1CC1)C(=O)c1cccc(S(C)(=O)=O)c1 (stereo not shown) [Example I-001] |  | 80 to 100 | 90 to 100 | 100 |  |  |  |  | 80 to 100 |  | 100 | 100 | 80 | 100 | 100 | 100 | 100 | mortality at 4 mg/m2 [3]: 85 to 100%; mortality at 20 mg/m2 [3]: 85 to 100% |
| CC(c1ncnn1-c1ncccn1)N(CC1CC1)C(=O)c1cc(C(F)(F)F)cc(Cl)c1F (stereo not shown) [Example I-004] |  |  |  | 100 |  |  | 100 |  |  | 83 | 80 | 100 |  | 100 |  | 100 | 100 |  |
| CC(C)Sc1cc(Cl)cc(C(=O)N[C@@H](C)c2ncnn2-c2ncccn2)c1 [Example I-046, 3-chloro-5-(isopropylsulfanyl)-N-{(1S)-1-[1-(pyrimidin-2-yl)-1H-1,2,4-triazol-5-yl]ethyl}benzamide] | 100 |  | 90 to 100 | 100 | 100 | 100 |  |  | 80 to 100 | 100 |  | 100 | 100 |  | 100 | 90 |  |  |
| CCS(=O)(=O)c1cc(Cl)cc(C(=O)N[C@@H](C)c2ncnn2-c2ncccn2)c1 [Example I-044, 3-chloro-5-(ethylsulfonyl)-N-{(1S)-1-[1-(pyrimidin-2-yl)-1H-1,2,4-triazol-5-yl]ethyl}benzamide] | 100 | 80 to 100 | 90 to 100 | 100 | 100 | 100 | 100 | 80 to 100 | 80 to 100 | 83 |  | 100 | 100 |  | 100 | 100 |  |  |
| CC(NC(=O)c1cc(Cl)cc(S(C)(=O)=O)c1)c1ncnn1-c1ncccn1 (stereo not shown) [Example I-020, 3-chloro-5-(methylsulfonyl)-N-{1-[1-(pyrimidin-2-yl)-1H-1,2,4-triazol-5-yl]ethyl}benzamide] | 100 |  |  | 100 | 100 |  | 100 |  |  |  |  | 100 | 100 | 100 | 100 | 100 | 100 |  |
| C[C@@H](NC(=O)c1cc(Cl)cc(S(C)(=O)=O)c1)c1ncnn1-c1ncc(Cl)cn1 [Example I-038] | 100 | 80 to 100 | 90 to 100 | 100 | 100 |  |  | 80 to 100 | 80 to 100 | 100 |  | 100 | 100 |  | 100 |  |  |  |
| CC(c1ncnn1-c1ncccn1)N(CC1CC1)C(=O)c1cc(Cl)cc(S(C)(=O)=O)c1 (stereo not shown) [Example I-003, 3-chloro-N-(cyclopropylmethyl)-5-(methylsulfonyl)-N-{1-[1-(pyrimidin-2-yl)-1H-1,2,4-triazol-5-yl]ethyl}benzamide] |  |  |  | 100 | 90 |  | 100 |  |  |  | 100 | 100 | 100 | 100 | 100 | 100 | 100 |  |
| CC(NC(=O)c1cc(Cl)cc(C2CC2)c1)c1ncnn1-c1ncccn1 (stereo not shown) [Example I-050] | 90 |  |  |  |  |  |  |  |  |  |  |  |  |  |  |  |  | efficacy (seedlings grown) (Diabrotica balteata): 80%; efficacy (infertile eggs) (Boophilus microplus): 100%; efficacy (fleas dead or moribund) (Ctenocephalides felis [2]): 100% |
